Patent US20250059164A1, “IRAK DEGRADERS AND USES THEREOF” (Kymera Therapeutics, Inc., priority 2023, published 2025)

How the values were obtained:
IRAK4 = biological target: T1, IRAK4 (Homo sapiens, UniProt Q9NWZ3); test: IRAK4 MSD degradation in OCI-LY10; format: cell-based; conditions: OCI-LY10 cells, 24 hrs, Meso Scale Discovery
T1 construct: endogenous in cells; host or cells: OCI-LY10
T1 sequence (Q9NWZ3 1-460): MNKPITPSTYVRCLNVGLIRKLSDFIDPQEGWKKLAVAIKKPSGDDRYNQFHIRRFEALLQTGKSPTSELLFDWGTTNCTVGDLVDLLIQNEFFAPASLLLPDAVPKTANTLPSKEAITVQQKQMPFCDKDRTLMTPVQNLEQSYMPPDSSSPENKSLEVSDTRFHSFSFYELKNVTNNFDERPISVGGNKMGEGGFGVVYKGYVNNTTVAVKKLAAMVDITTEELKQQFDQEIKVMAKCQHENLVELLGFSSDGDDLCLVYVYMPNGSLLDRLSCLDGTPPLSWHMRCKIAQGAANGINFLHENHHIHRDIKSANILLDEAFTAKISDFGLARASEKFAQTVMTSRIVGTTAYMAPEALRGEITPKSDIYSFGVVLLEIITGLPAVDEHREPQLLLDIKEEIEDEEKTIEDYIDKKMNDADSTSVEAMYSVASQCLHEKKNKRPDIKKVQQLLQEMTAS
How it was run: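 OCI-LY10 cells treated 4 to 24 hours at 37° C. with 8-dose 1:3 series, top 1 to 10 μM. IRAK4 in lysates quantified by MSD sandwich immunoassay (mouse capture, rabbit detection, SULFO-TAG anti-rabbit). DC50 from three-parameter logistic fit.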

[1] = Rodent pharmacokinetics (rat PK); format: in vivo; conditions: po, dosed intravenously or orally by gavage, plasma, read-out: F % (bioavailability)
Procedure: All studies related to handling, care, and treatment of rats in the study were performed according to the guidelines approved by the Institutional Animal Care and Use Committee (IACUC). All rats had access to food and water ad libitum. Rats were dosed intravenously or orally by gavage. Whole blood was collected from the jugular vein immediately prior to dosing and at 5 (intravenously administered drugs only), 15, and 30 min and 1, 2, 4, 8, and 24 h after drug administration. After sampling, whole blood was centrifuged at 4,000×g for 5 min at 4° C. to obtain plasma.
The letter codes for bioavailability (F %) include: A (≥5%) and B (≤5%).

SMILES | DC50 (IRAK4) [nM] | bioavailability [1] [%]
Cn1c(=O)n(C2CCC(=O)NC2=O)c2cccc(N3CCC4(CCN(C[C@H]5CC[C@H](n6cc7cc(NC(=O)c8cncc(C#N)c8)c(C(C)(C)O)cc7n6)CC5)CC4(F)F)CC3)c21 (mixture of isomers) [I-136, 5-Cyano-N-[2-[4-[[9-[1-(2,6-dioxo-3-piperidyl)-3-methyl-2-oxo-benzimidazol-4-yl]-5,5-difluoro-3,9-diazaspiro[5.5]undecan-3-yl]methyl]cyclohexyl]-6-(1-hydroxy-1-methyl-ethyl)indazol-5-yl]pyridine-3-carboxamide] | < 10 | ≤ 5
CN(C[C@H]1CC[C@H](n2cc(NC(=O)c3cnn4ccc(N5CCCC5)nc34)c(C(F)F)n2)CC1)[C@H]1CCN(c2cccc3c2n(C)c(=O)n3C2CCC(=O)NC2=O)C[C@H]1F (single isomer, unassigned) [I-21] | – | ≤ 5
CN(C[C@H]1CC[C@H](c2nc3cc(C(C)(C)O)c(NC(=O)c4cccc(C(F)(F)F)c4)cc3s2)CC1)[C@@H]1CCN(c2cccc3c2n(C)c(=O)n3C2CCC(=O)NC2=O)C[C@H]1F (single isomer, unassigned) [I-176] | – | ≥ 5
COc1cn2nc([C@H]3CC[C@H](CN(C)[C@H]4CCN(c5cccc6c5n(C)c(=O)n6C5CCC(=O)NC5=O)C[C@H]4F)CC3)cc2cc1NC(=O)c1cncc(C(F)(F)F)n1 (single isomer, unassigned) [I-219] | – | ≤ 5
Cn1c(=O)n(C2CCC(=O)NC2=O)c2cccc(N3CC[C@H](CN4CCN(C[C@H]5CC[C@H](n6cc(NC(=O)c7cnn8ccc(N9C[C@H]%10C[C@@H]9CO%10)nc78)c(C(F)F)n6)CC5)CC4)C3)c21 (stereo partly drawn) [I-114] | – | ≤ 5
Cn1nc(C2CCC(=O)NC2=O)c2cccc(N3CCC4(CCN(C[C@H]5CC[C@H](n6cc7cc(NC(=O)c8cncc(C#N)c8)c(C(C)(C)O)cc7n6)CC5)CC4(F)F)CC3)c21 (stereo partly drawn) [I-220] | – | ≤ 5
Cn1c(=O)n(C2CCC(=O)NC2=O)c2cccc(N3CC4(CCN(C[C@H]5CC[C@H](n6cc7cc(NC(=O)c8cncc(C(F)(F)F)n8)ncc7n6)CC5)CC4(F)F)C3)c21 (stereo partly drawn) [I-221] | – | ≤ 5
Cn1c(=O)n(C2CCC(=O)NC2=O)c2cccc(N3CCC4(CCN(C[C@H]5CC[C@H](n6cc7cc(NC(=O)c8cncc(C(F)(F)F)n8)c(C(C)(C)O)cc7n6)CC5)CC4(F)F)CC3)c21 (stereo partly drawn) [I-354] | < 10 | –
Cn1c(=O)n(C2CCC(=O)NC2=O)c2cccc(N3CCN(C[C@H]4CC[C@H](n5cc6cc(NC(=O)c7cncc(C(F)(F)F)n7)ccc6n5)CC4)[C@@H](C(F)(F)F)C3)c21 (stereo partly drawn) [I-369] | 100 to 200 | –
CN1C(=O)CCC(n2c(=O)n(C)c3c([C@@H]4CCN(C[C@H]5CC[C@H](n6cc7cc(NC(=O)c8cncc(C(F)(F)F)n8)ccc7n6)CC5)C[C@H]4F)cccc32)C1=O (stereo partly drawn) [I-382] | > 200 | –
COc1cc(C(=O)Nc2ccc3nn([C@H]4CC[C@H](CN5CC[C@@H](c6cccc7c6n(C)c(=O)n7C6CCC(=O)NC6=O)C(F)(F)C5)CC4)cc3c2)nc(C(F)(F)F)c1 (stereo partly drawn) [I-401] | > 200 | –
Cc1cc(C(=O)Nc2ccc3nn([C@H]4CC[C@H](CN5CCC6(CCN(c7cccc8c7n(C)c(=O)n8C7CCC(=O)NC7=O)CC6)C(F)(F)C5)CC4)cc3c2)nc(C(F)(F)F)c1 (stereo partly drawn) [I-403] | > 200 | –
Cn1c(=O)n(C2CCC(=O)NC2=O)c2cccc([C@@H]3CCN(C[C@H]4CC[C@H](n5cc6cc(NC(=O)c7cncc(C#N)c7)c(C(C)(C)O)cc6n5)CC4)CC3(F)F)c21 (stereo partly drawn) [I-416] | < 10 | –

Next, values leading:

DC50 (IRAK4) [nM] | bioavailability [1] [%] | SMILES
< 10 | ≤ 5 | COc1ccc2c(c1N1CC3(CCN(C[C@H]4CC[C@H](n5cc6cc(NC(=O)c7cncc(C#N)c7)c(C(C)(C)O)cc6n5)CC4)CC3(F)F)C1)n(C)c(=O)n2C1CCC(=O)NC1=O (mixture of isomers) [I-227, 5-Cyano-N-[2-[4-[[2-[1-(2,6-dioxo-3-piperidyl)-5-methoxy-3-methyl-2-oxo-benzimidazol-4-yl]-5,5-difluoro-2,7-diazaspiro [3.5]nonan-7-yl]methyl]cyclohexyl]-6-(1-hydroxy-1-methyl-ethyl)indazol-5-yl]pyridine-3-carboxamide]
– | ≥ 5 | CN(C[C@H]1CC[C@H](c2nc3cc(C(C)(C)O)c(NC(=O)c4cncc(C(F)(F)F)c4)cc3s2)CC1)[C@H]1CCN(c2cccc3c2n(C)c(=O)n3C2CCC(=O)NC2=O)C[C@@H]1F (single isomer, unassigned) [I-160]
– | ≥ 5 | CN(C[C@H]1CC[C@H](c2nc3cc(C(C)(C)O)c(NC(=O)c4cccc(C(F)(F)F)c4)cc3s2)CC1)[C@H]1CCN(c2cccc3c2n(C)c(=O)n3C2CCC(=O)NC2=O)C[C@@H]1F (single isomer, unassigned) [I-177]
– | ≤ 5 | COc1cn2nc([C@H]3CC[C@H](CN4CC[C@@H](c5cccc6c5n(C)c(=O)n6C5CCC(=O)NC5=O)[C@H](F)C4)CC3)cc2cc1NC(=O)c1cncc(C(F)(F)F)n1 (stereo partly drawn) [I-166]
– | ≥ 5 | CN(C[C@H]1CC[C@H](c2nc3cc(C(C)(C)O)c(NC(=O)c4cccc(C(F)(F)F)n4)cc3o2)CC1)[C@H]1CCN(c2cccc3c2n(C)c(=O)n3C2CCC(=O)NC2=O)C[C@H]1F (stereo partly drawn) [I-178]
– | ≤ 5 | Cn1c(=O)n(C2CCC(=O)NC2=O)c2cccc([C@H]3C[C@H](COC4CCN(C[C@H]5CC[C@H](n6cc(NC(=O)c7cnn8ccc(N9C[C@H]%10C[C@@H]9CO%10)nc78)c(C(F)F)n6)CC5)CC4)C3)c21 (stereo partly drawn) [I-267]
10 to 100 | – | Cn1c(=O)n(C2CCC(=O)NC2=O)c2cccc(C#CCN3CCN(C[C@H]4CC[C@H](n5cc(NC(=O)c6cnn7ccc(N8C[C@H]9C[C@@H]8CO9)nc67)c(C(F)F)n5)CC4)[C@H](C(F)(F)F)C3)c21 (stereo partly drawn) [I-345]
< 10 | – | Cn1c(=O)n(C2CCC(=O)NC2=O)c2cccc(N3CCN(C[C@H]4CC[C@H](n5cc6cc(NC(=O)c7cncc(C(F)(F)F)n7)ccc6n5)CC4)CC3=O)c21 (stereo partly drawn) [I-350]
< 10 | – | Cn1c(=O)n(C2CCC(=O)NC2=O)c2cccc(C3CCN(C[C@H]4CC[C@H](n5cc6cc(NC(=O)c7cncc(C(F)(F)F)n7)ccc6n5)CC4)C(=O)C3)c21 (stereo partly drawn) [I-358]
10 to 100 | – | Cn1c(=O)n(C2CCC(=O)NC2=O)c2cccc(N3CCN(C[C@H]4CC[C@H](n5cc6cc(NC(=O)c7cncc(C(F)(F)F)n7)ccc6n5)CC4)[C@H](C(F)(F)F)C3)c21 (stereo partly drawn) [I-368]
> 200 | – | CN1C(=O)CCC(n2c(=O)n(C)c3c([C@@H]4CCN(C[C@H]5CC[C@H](n6cc7cc(NC(=O)c8cncc(C(F)(F)F)n8)ccc7n6)CC5)CC4(F)F)cccc32)C1=O (stereo partly drawn) [I-378]
< 10 | – | COc1ccc2c(c1N1CCC3(CCN(C[C@H]4CC[C@H](n5cc6cc(NC(=O)c7cncc(C#N)c7)c(C(C)(C)O)cc6n5)CC4)CC3(F)F)CC1)n(C)c(=O)n2C1CCC(=O)NC1=O (stereo partly drawn) [I-397]
> 200 | – | COc1cc(C(=O)Nc2ccc3nn([C@H]4CC[C@H](CN5CCC6(CCN(c7cccc8c7n(C)c(=O)n8C7CCC(=O)NC7=O)CC6)C(F)(F)C5)CC4)cc3c2)nc(C(F)(F)F)c1 (stereo partly drawn) [I-398]
10 to 100 | – | Cn1c(=O)n(C2CCC(=O)NC2=O)c2ccc(F)c(N3CCC4(CCN(C[C@H]5CC[C@H](n6cc7cc(NC(=O)c8cncc(C(F)(F)F)n8)ccc7n6)CC5)CC4(F)F)CC3)c21 (stereo partly drawn) [I-399]
> 200 | – | Cc1cc(C(=O)Nc2ccc3nn([C@H]4CC[C@H](CN5CC[C@@H](c6cccc7c6n(C)c(=O)n7C6CCC(=O)NC6=O)C(F)(F)C5)CC4)cc3c2)nc(C(F)(F)F)c1 (stereo partly drawn) [I-402]
